Experimental data reported in US7973056B2, “Triazole derivative or salt thereof” (Fujifilm Finechemicals Co., Ltd, priority 2008, dated 2011).
≈ marks a conversion by molar mass, not a printed value.

How the values were obtained:
[1] = tested on: Aspergillus fumigatus ATCC 1028; test: Antifungal activity test (in vitro), MIC; assay type: cell-based; conditions: ATCC1028
Protocol: Minimum inhibitory concentration (MIC) of each of the compounds obtained in Examples 1 to 12 was measured for respective fungi at MOS Pharm Service, by the methods described in Antimicrobial Agents and Chemotherapy, vol. 3, pp. 40-48 (1973), Antimicrobial Agents and Chemotherapy, vol. 33, pp. 215-222 (1989) and Antimicrobial Agents and Chemotherapy, vol. 38, pp. 2362-2368 (1994). The measuring conditions are shown in the following. In this case, Voriconazol was used as a comparative compound.
Aspergillus fumigatus ATCC 1028; Cultured at 28° C. for 2 days using potato dextrose broth, and this was used as a cell suspension.
Each of the compounds of the invention was adjusted to a concentration of 1% by weight using dimethyl sulfoxide (DMSO) and a medium similar to the respective medium used in the above-mentioned fungal culture, having a final concentration of from 0.001 to 100 μg/ml, was prepared. Each of the inoculation cell suspensions prepared by the above-mentioned methods was inoculated onto this agar plate. […] In this connection, Voriconazol was used as the comparative compound C-1.

[2] = tested on: Cryptococcus neoformans ATCC 24067; test: Antifungal activity test (in vitro), MIC; assay type: cell-based; conditions: ATCC24067
Protocol: (§1) Minimum inhibitory concentration (MIC) of each of the compounds obtained in Examples 1 to 12 was measured for respective fungi at MOS Pharm Service, by the methods described in Antimicrobial Agents and Chemotherapy, vol. 3, pp. 40-48 (1973), Antimicrobial Agents and Chemotherapy, vol. 33, pp. 215-222 (1989) and Antimicrobial Agents and Chemotherapy, vol. 38, pp. 2362-2368 (1994). The measuring conditions are shown in the following. In this case, Voriconazol was used as a comparative compound. Cryptococcus neoformans ATCC 24067, Pityrosporum ovale ATCC 38593; Cultured at 37° C. for 2 day using fluid Sabouraud medium, and this was used as a cell suspension. Each of the compounds of the invention was adjusted to a concentration of 1% by weight using dimethyl sulfoxide (DMSO) and a medium similar to the respective medium used in the above-mentioned fungal culture, having a final concentration of from 0.001 to 100 μg/ml, was prepared. Each of the inoculation cell suspensions prepared by the above-mentioned methods was inoculated onto this agar plate. […] In this connection, Voriconazol was used as the comparative compound C-1.

[3] = tested on: Pityrosporum ovale ATCC 38593; test: Antifungal activity test (in vitro), MIC; assay type: cell-based; conditions: Malassezia furfur, ATCC38593
Protocol: as §1

[4] = tested on: Microsporum canis ATCC 36299; test: Antifungal activity test (in vitro), MIC; assay type: cell-based; conditions: ATCC36299
Protocol: as §1, with “Microsporum canis” for “Cryptococcus neoformans”, “36299;” for “24067, Pityrosporum ovale ATCC 38593;”, “30°” for “37°”, “days” for “day”

[5] = tested on: Trichophyton mentagrophytes ATCC 9533; test: Antifungal activity test (in vitro), MIC; assay type: cell-based; conditions: ATCC9533
Protocol: as §1, with “Trichophyton mentagrophytes” for “Cryptococcus neoformans”, “9533;” for “24067, Pityrosporum ovale ATCC 38593;”, “28°” for “37°”, “3 days” for “2 day”

[6] = tested on: Candida albicans ATCC 10231; test: Antifungal activity test (in vitro), MIC; assay type: cell-based; conditions: ATCC10231
Protocol: as §1, with “Candida albicans” for “Cryptococcus neoformans”, “10231 and” for “24067, Pityrosporum ovale”, “44858;” for “38593;”, “20 hours” for “2 day”

[7] = tested on: Candida albicans ATCC 44858; test: Antifungal activity test (in vitro), MIC; assay type: cell-based; conditions: ATCC44858
Protocol: as §1, with “Candida albicans” for “Cryptococcus neoformans”, “10231 and” for “24067, Pityrosporum ovale”, “44858;” for “38593;”, “20 hours” for “2 day”

[8] = tested on: Trichophyton rubrum ATCC 10218; test: Antifungal activity test (in vitro), MIC; assay type: cell-based; conditions: ATCC10218
Protocol: as §1, with “Trichophyton rubrum” for “Cryptococcus neoformans”, “10218;” for “24067, Pityrosporum ovale ATCC 38593;”, “28°” for “37°”, “3 days” for “2 day”

[9] = tested on: Aspergillus niger ATCC 8740; test: Antifungal activity test (in vitro), MIC; assay type: cell-based; conditions: ATCC8740
Protocol: as §1, with “Aspergillus niger” for “Cryptococcus neoformans”, “8740;” for “24067, Pityrosporum ovale ATCC 38593;”, “28°” for “37°”, “days” for “day”, “potato dextrose broth,” for “fluid Sabouraud medium,”

| Structure (SMILES) | MIC [1] [µg/mL] | MIC [2] [µg/mL] | MIC [3] [µg/mL] | MIC [4] [µg/mL] | MIC [5] [µg/mL] | MIC [6] [µg/mL] | MIC [7] [µg/mL] | MIC [8] [µg/mL] | MIC [9] [µg/mL] | melting point [°C] |
| --- | --- | --- | --- | --- | --- | --- | --- | --- | --- | --- |
| Cc1ccc(C2=CCN([C@H](C)[C@](O)(Cn3cncn3)c3ccc(F)cc3F)CC2)nc1C [I-4, (2R,3R)-2-(2,4-difluorophenyl)-3-(5,6-dimethyl-3′,6′-dihydro-2,4′-bipyridin-1′(2′H)-yl)-1-(1,2,4-triazol-1-yl)butan-2-ol] | 10 (≈ 22.8 µM) | 0.1 (≈ 0.228 µM) | 10 (≈ 22.8 µM) | 1 (≈ 2.28 µM) | 0.3 (≈ 0.683 µM) | 0.3 (≈ 0.683 µM) |  |  |  | 85.5 to 87.5 |
| Cc1ccc(C2=CCN([C@H](C)[C@](O)(Cn3cncn3)c3ccc(F)cc3F)CC2)nc1 [I-5, (2R,3R)-2-(2,4-difluorophenyl)-3-(5-methyl-3′,6′-dihydro-2,4′-bipyridin-1′(2′H)-yl)-1-(1,2,4-triazol-1-yl)butan-2-ol] | 3 (≈ 7.05 µM) | 0.03 (≈ 0.0705 µM) | 0.003 (≈ 0.00705 µM) | 1 (≈ 2.35 µM) | 0.1 (≈ 0.235 µM) | 0.1 (≈ 0.235 µM) |  |  |  | 115 to 117 |
| C[C@@H](N1CC=C(c2ccc(F)cn2)CC1)[C@](O)(Cn1cncn1)c1ccc(F)cc1F [I-7, (2R,3R)-2-(2,4-difluorophenyl)-3-(5-fluoro-3′,6′-dihydro-2,4′-bipyridin-1′(2′H)-yl)-1-(1,2,4-triazol-1-yl)butan-2-ol] | 10 (≈ 23.3 µM) | 0.3 (≈ 0.699 µM) | 0.01 (≈ 0.0233 µM) | 10 (≈ 23.3 µM) | 1 (≈ 2.33 µM) | 0.1 (≈ 0.233 µM) |  |  |  | 148 to 150 |

Further lines, with some results ahead:

| MIC [1] [µg/mL] | MIC [2] [µg/mL] | MIC [3] [µg/mL] | MIC [4] [µg/mL] | MIC [5] [µg/mL] | MIC [6] [µg/mL] | MIC [7] [µg/mL] | MIC [8] [µg/mL] | MIC [9] [µg/mL] | Structure (SMILES) | melting point [°C] |
| --- | --- | --- | --- | --- | --- | --- | --- | --- | --- | --- |
| 0.3 (≈ 0.859 µM) | 0.1 (≈ 0.286 µM) | 0.3 (≈ 0.859 µM) | 3 (≈ 8.59 µM) | 0.1 (≈ 0.286 µM) | 0.3 (≈ 0.859 µM) | 0.3 (≈ 0.859 µM) | 0.3 (≈ 0.859 µM) | 0.1 (≈ 0.286 µM) | C[C@@H](c1ncncc1F)[C@](O)(Cn1cncn1)c1ccc(F)cc1F [C-1, Voriconazol, reference compound] |  |
| 30 (≈ 70.9 µM) | 0.3 (≈ 0.709 µM) | 0.3 (≈ 0.709 µM) | 10 (≈ 23.6 µM) | 10 (≈ 23.6 µM) | 0.3 (≈ 0.709 µM) |  |  |  | C[C@@H](Oc1cc(-c2ccccn2)ccn1)[C@](O)(Cn1cncn1)c1ccc(F)cc1F [I-9, (2R,3R)-3-(2,4′-bipyridin-2′-yloxy)-2-(2,4-difluorophenyl)-1-(1,2,4-triazol-1-yl)butan-2-ol] | 178 to 180 |
| 100 (≈ 243 µM) | 1 (≈ 2.43 µM) | 0.3 (≈ 0.729 µM) | 100 (≈ 243 µM) | 3 (≈ 7.29 µM) | 3 (≈ 7.29 µM) |  |  |  | C[C@@H](N1CCC=C(c2ccccn2)C1)[C@](O)(Cn1cncn1)c1ccc(F)cc1F [I-10, (2R,3R)-2-(2,4-difluorophenyl)-3-(5′,6′-dihydro-2,3′-bipyridin-1′(2′H)-yl)-1-(1,2,4-triazol-1-yl)butan-2-ol] | 89 to 92 |
| 100 (≈ 242 µM) | 10 (≈ 24.2 µM) | 10 (≈ 24.2 µM) | 100 (≈ 242 µM) | 100 (≈ 242 µM) | 0.1 (≈ 0.242 µM) |  |  |  | C[C@@H](N1CCCC(c2ccccn2)C1)[C@](O)(Cn1cncn1)c1ccc(F)cc1F (stereo partly drawn) [I-12, (2R,3R)-2-(2,4-difluorophenyl)-3-(3-pyridin-2-ylpiperidin-1-yl)-1-(1,2,4-triazol-1-yl)butan-2-ol] | 75 to 78 |
